In patent publication US20100137398A1, “USE OF HDAC INHIBITORS FOR THE TREATMENT OF GASTROINTESTINAL CANCERS” (NOVARTIS AG, priority 2007, published 2010):
pIC50: −log10 of the molar value.

Experiments:
Test in all cases: Monolayer growth inhibition assay (MTT/MTS)
Format in all cases: cell-based
[1] = tested on: Colo206F colon cancer cell line
Description: (§1) The MTT is a colorimetric assay to determine the cell proliferation rate. The yellow tetrazolium MTT (3-(4, 5-dimethylthiazolyl-2)-2, 5-diphenyltetrazolium bromide) is reduced, by metabolically active cells, in part by the action of dehydrogenase enzymes, to generate reducing equivalents such as NADH and NADPH. The resulting intracellular purple formazan can be solubilized and quantified by spectrophotometric means. The signals produced is directly proportional to the cell numbers. Describing the MTT assay in detail, experiments were done using six-point or 9 point drug titrations in multi-well tissue culture dishes, with outer rows left empty. Cells were suspended in complete media at densities of between 10^3 and 10^4 cell/ml, respectively, and added per well. The appropriate medium (200 μl) was then added. Twenty-four hours later, 10 μl of MTS solution, were added to one plates to determine the activity at the time of compound addition (T0). This plate was incubated at 37° for 4 hours and the optical density was measured on a Molecular Devices Thermomax at 490 nm using the Softmax program. The T0 plate served as a reference for initial activity at the beginning of the experiment.
(§2) Compound addition began 24 hours after seeding, the same time as the T0 determination. Serial dilutions at 4-fold 2-fold, 1-fold, 0.5-fold, 0.25-fold and 0.125-fold of previously determined IC50 values of each compound were made in a 96-deep well plate with the highest concentrations on the edge of the plate. Each of the six dilutions were added in triplicate and complete medium was added to the empty outer rows, without cells. The compounds were added to the plates singly or in combination with Compound III (LBH589). The plates were incubated at 37° C. for 72 hours from seeding. The MTS solution was added (as for the T0 plate) and read four hours later. In order to analyze the data, the average value of media alone (background) was subtracted from each experimental well and the triplicate values were averaged for each compound dilution. The following formulas were used to calculate percent growth.
(§3) If X>T0, % Growth=100×(X−T0)/(GC−T0))
(§4) If X<T0, % Growth=100×(X−T0)/T0)
(§5) T0=average value of T0 minus background
(§6) GC=average value of untreated cells (in triplicate) minus background X=average value, of compound treated cells (in triplicate) minus background
(§7) IC50 the concentration of LBH589 required to inhibit cell growth by 50% and LD50s the concentration required to reduce cell number (kill cells) to 50% the original innoculum were determined. The “% Growth” was plotted against compound concentration and used to calculate IC50s and LD50s, employing the user-defined spline function in Microsoft Excel.
(§8) Colon cancer cell lines were treated with DMSO vehicle control or varying concentrations of LBH589 for 3 days. Cell proliferation was measured on the day of cell plating and on the third day post-treatment. IC50 and LD50 values were calculated as described above.

[2] = tested on: Colo320 colon cancer cell line
Description: as §1, §2, §3, §4, §5, §6, §7, §8

[3] = tested on: CaCo2 colon cancer cell line
Description: as §1, §2, §3, §4, §5, §6, §7, §8

[4] = tested on: SW48 colon cancer cell line
Description: as §1, §2, §3, §4, §5, §6, §7, §8

SMILES: Cc1[nH]c2ccccc2c1CCNCc1ccc(/C=C/C(=O)NO)cc1 [LBH589, N-hydroxy-3-[4-[[[2-(2-methyl-1H-indol-3-yl)ethyl]-amino]methyl]phenyl]-2E-2-propenamide]
- LD50 ([1]; 3 days, concentration reducing cell number to 50% of original inoculum): >10 µM
- pIC50 ([1]; COLO 206F, 72 h, 3 days treatment): 7.99
- LD50 ([2]; Colo320, 3 days, concentration reducing cell number to 50% of original inoculum): 82.90 nM
- pIC50 ([2]; Homo sapiens, COLO 320, 72 h, Colo320, 3 days treatment): 8.19
- LD50 ([3]; CaCo2, 3 days, concentration reducing cell number to 50% of original inoculum): 45.55 nM
- pIC50 ([3]; Homo sapiens, Caco-2, 72 h, CaCo2, 3 days treatment): 7.86
- pIC50 ([4]; Homo sapiens, 72 h, SW48, 3 days treatment): 8.89
- LD50 ([4]; SW48, 3 days, concentration reducing cell number to 50% of original inoculum): 13.09 nM
